Data on ten compounds can be found in article PMC5609913, “Structure based design, synthesis and activity studies of small hybrid molecules as HDAC and G9a dual inhibitors” (Oncotarget, 2017).

In assay [1] the test system is HDAC. The assay is described as follows: Homogeneous cellular histone deacetylase assay, Hela. In kind it is cell-based, human. The protocol: (§1) The enzymatic activity of HDAC was measured in intact cells using the homogeneous cellular assay method. A cell-permeable peptide Boc-K(Ac)-AMC used as the HDAC substrate, after deacetylation it is cleaved by trypsin to release the fluorescent 7-amino-4-methylcoumarin (AMC) and further quantified.
(§2) The manual assay was developed by Thomas's group. […] After 24 h, 9 μl inhibitors with different concentration were added to the HeLa cells and incubation was continued for 3 h under cell culture conditions. After this treatment period, 10 μl of a 2 mM stock solution of the substrate Boc-K(Ac)-AMC was added into the 96 well plates with Hela cells and inhibitors. […] A549 and K562 cell lines used the same method, respectively. IC50s were calculated using GraphPad Prizm statistical package with sigmoidal variable slope dose response curve fit.

Assay [2] relates to HDAC. The assay is described as follows: Homogeneous cellular histone deacetylase assay, A549. In kind it is cell-based, human. As to conditions: Supplementary Table 2; NA = not active up to highest concentration tested (100 μM); >100 = IC50 not reached at 100 μM. How it is done:
as §1, §2

Another assay concerns A549 cells. The assay is described as follows: Cell anti-proliferation / toxicity assay (CCK-8), A549. It is filed as cell-based. As to conditions: Homo sapiens. The protocol:
(§3) Cell anti-proliferation assays were performed to determine the toxicity of these inhibitors. […] These compounds were further evaluated against the control cell line HEK293 to test their toxicity with a non-cancerous cell line.
(§4) And then the cells were exposed to the different inhibitors with various concentrations for 72 h. […] EC50s were calculated using GraphPad Prizm statistical package with sigmoidal variable slope dose response curve fit.

A further assay deals with HEK293 cells. As to the kind of experiment: Cell anti-proliferation / toxicity assay (CCK-8), HEK293 normal cell line. It is filed as cell-based. Conditions: Homo sapiens, Table 6, 72 h. The protocol:
as §3, §4

The mark [3] stands for this setting: Supplementary Table 2, NA = not active up to highest concentration tested (100 μM), >100 = IC50 not reached at 100 μM, read-out: IC50-HDAC Hela.
Where [4] appears, read: Table 3, Boc-K(Ac)-AMC substrate, intact Hela cells, read-out: Hela IC50.
[5] abbreviates: Table 6, 72 h, >100 = not reached at highest tested concentration (100 μM).

SMILES strings stand for the structures.

As usually defined, the IC50 is the concentration that inhibits the measured activity by half. One may read the EC50 as the concentration that produces a half-maximal response. As to `COc1ccc2c(NC3CCN(Cc4ccccc4)CC3)nc(NCCNC(=O)CCCC(=O)NO)nc2c1` [Compound 16, N1-(2-((4-((1-benzylpiperidin-4-yl)amino)-7-methoxyquinazolin-2-yl)amino)ethyl)-N5-hydroxyglutaramide], the IC50 in the assay on HDAC [1] (setting [3]) and with HDAC [2] was more than 100 µM in each case. Besides, in the assay with A549 cells (Supplementary Table 4, 72 h, NA = not active up to highest concentration tested (100 μM)), the EC50 is more than 100 µM.

Regarding `COc1ccc2c(NC3CCN(C)CC3)nc(NCCNC(=O)CCCC(=O)NO)nc2c1` [Compound 16a, N1-hydroxy-N5-(2-((7-methoxy-4-((1-methylpiperidin-4-yl)amino)quinazolin-2-yl)amino)ethyl)glutaramide], the IC50 in the assay on HDAC [1] (setting [3]) and in the assay with HDAC [2] was more than 100 µM in each case.

Regarding `COc1ccc2c(NC3CCN(Cc4ccccc4)CC3)nc(NCCNC(=O)CCCCCCC(=O)NO)nc2c1` [Compound 13, N1-(2-((4-((1-benzylpiperidin-4-yl)amino)-7-methoxyquinazolin-2-yl)amino)ethyl)-N8-hydroxyoctanediamide], the IC50 in the assay on HDAC [1] (setting [4]) is 15.3 ± 0.79 µM; with HDAC [2] it was more than 100 µM. For the same compound, the values for the EC50 in the assay on HEK293 cells and in the assay with A549 cells (setting [5]) were 57 ± 1.12 µM and more than 100 µM, respectively.

On to `COc1cc2nc(NCCNC(=O)CCCCCC(=O)NO)nc(NC3CCN(Cc4ccccc4)CC3)c2cc1OC` [Compound 5b, N1-(2-((4-((1-benzylpiperidin-4-yl)amino)-6,7-dimethoxyquinazolin-2-yl)amino)ethyl)-N7-hydroxyheptanediamide], for which the “HDAC inhibition (in words)” value in the assay on HDAC [1] (candidates tested in both Hela and K562 cell lines, compared with Compound 14) was “did not show decent inhibition of HDAC”.

With `COc1cc2nc(N3CCCN(C)CC3)nc(NC3CCN(C(=O)CCCCCCC(=O)NO)CC3)c2cc1OC` [Compound 19, 8-(4-((6,7-dimethoxy-2-(4-methyl-1,4-diazepan-1-yl)quinazolin-4-yl)amino)piperidin-1-yl)-N-hydroxy-8-oxooctanamide], the IC50 with HDAC [1] (setting [3]) and with HDAC [2] was more than 100 µM throughout.

`COc1ccc2c(NC3CCN(Cc4ccccc4)CC3)nc(NCCNC(=O)CCCCC(=O)NO)nc2c1` [Compound 15, N1-(2-((4-((1-benzylpiperidin-4-yl)amino)-7-methoxyquinazolin-2-yl)amino)ethyl)-N6-hydroxyadipamide]: the IC50 with HDAC [1] (setting [3]) and in the assay on HDAC [2] was more than 100 µM in each case.

For the compound `COc1cc2nc(N3CCCN(C)CC3)nc(NC3CCN(C(=O)CCCCCC(=O)NO)CC3)c2cc1OC` [Compound 20, 7-(4-((6,7-dimethoxy-2-(4-methyl-1,4-diazepan-1-yl)quinazolin-4-yl)amino)piperidin-1-yl)-N-hydroxy-7-oxoheptanamide], the IC50 in the assay with HDAC [1] (setting [3]) and with HDAC [2] was more than 100 µM throughout.

Consider `COc1ccc2c(NC3CCN(C)CC3)nc(NCCNC(=O)CCCCC(=O)NO)nc2c1` [Compound 15a, N1-hydroxy-N6-(2-((7-methoxy-4-((1-methylpiperidin-4-yl)amino)quinazolin-2-yl)amino)ethyl)adipamide], for which the IC50 in the assay on HDAC [1] (setting [3]) and in the assay on HDAC [2] was more than 100 µM each time.

As to `COc1ccc2c(NC3CCN(Cc4ccccc4)CC3)nc(NCCNC(=O)CCCCCC(=O)NO)nc2c1` [Compound 14, N1-(2-((4-((1-benzylpiperidin-4-yl)amino)-7-methoxyquinazolin-2-yl)amino)ethyl)-N7-hydroxyheptanediamide], the IC50 with HDAC [1] (setting [4]) was 13.8 ± 1.22 µM; in the assay with HDAC [2], more than 100 µM. For the same compound, the EC50 with HEK293 cells came out at 19.95 ± 0.19 µM; in the assay with A549 cells (setting [5]) it was 36.2 ± 1.76 µM.

Turning to `COc1ccc2c(NCCNC(=O)CCCCCC(=O)NO)nc(N3CCCN(C)CC3)nc2c1` [Compound 22, N1-hydroxy-N7-(2-((7-methoxy-2-(4-methyl-1,4-diazepan-1-yl)quinazolin-4-yl)amino)ethyl)heptanediamide], the IC50 in the assay with HDAC [1] (setting [3]) and with HDAC [2] was more than 100 µM throughout.
